Experimental data reported in patent publication US9018206B2, “Carboxamide compounds and their use as calpain inhibitors” (AbbVie Deutschland GmbH & Co. KG, priority 2009, dated 2015).

Tests used:
Format in all cases: biochemical
[1] = molecular target: T1, recombinant human cathepsin S (Homo sapiens, UniProt P25774); assay: Cathepsin S enzyme inhibition in vitro (kinetic fluorescence assay); details: Ki(cathepsin S)/Ki(calpain) ratio
T1 construct: purchased Calbiochem 219343; host or cells: E. coli
T1 sequence (P25774 115-331): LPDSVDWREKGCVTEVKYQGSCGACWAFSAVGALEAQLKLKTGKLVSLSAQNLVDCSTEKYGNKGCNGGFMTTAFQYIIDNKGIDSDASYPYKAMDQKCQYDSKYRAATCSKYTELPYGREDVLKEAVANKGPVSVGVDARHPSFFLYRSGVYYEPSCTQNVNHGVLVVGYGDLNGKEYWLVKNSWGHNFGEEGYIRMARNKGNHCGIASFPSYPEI
Procedure: (§1) Testing for blockade of the corresponding enzymic activities was carried out by means of kinetic fluorescence assays (excitation 390 nm, emission 460 nm).
(§2) Apparent Ki values were calculated from the experimentally determined IC50 values by the Cheng-Prussoff relation assuming a reversible competitive enzyme inhibition. The Km values of the substrates used under the assay conditions indicated above were: 90 μM (Z-Phe-Arg-AMC, cathepsin B), 10 μM (Z-Gly-Pro-Arg-AMC, cathepsin K), 2 μM (Z-Phe-Arg-AMC, cathepsin L), and 30 μM (Z-Val-Val-Arg-AMC, cathepsin S).
(§3) The indicated Ki values are averages of the inhibition constants calculated on the basis of 2 to 4 independent dose-effect plots.
(§4) • 20 nM calpain-I—isolated from human erythrocytes (Calbiochem #208713), 100 μM Suc-Leu-Tyr-AMC (Bachem #I-1355) as substrate in buffer with 62 mM imidazole, 0.3 mM CaCl2, 0.10% CHAPS, 0.05% BSA, 1 mM DTT at pH 7.3 and room temperature. 1. Cathepsin B: • 0.25 nM cathepsin B—isolated from human liver (Calbiochem #219362), 100 μM Z-Phe-Arg-AMC (Bachem #I-1160) as substrate 50 mM MES, 2 mM EDTA, 0.05% Brij 35, 2.5 mM L-cysteine, pH 6.0, room temperature. 3. Cathepsin K: • 3 nM cathepsin K activated from recombinant human procathepsin K from E. coli (Calbiochem #342001), 10 μM Z-Gly-Pro-Arg-AMC (Biomol #P-142) as substrate in 50 mM MES, 2 mM EDTA, 0.05% Brij 35, 2.5 mM L-cysteine, pH 6.0, room temperature. 4. Cathepsin L: • 1 nM cathepsin L—isolated from human liver (Calbiochem #219402), 2 μM Z-Phe-Arg-AMC (Bachem #I-1160) as substrate in 50 mM MES, 2 mM EDTA, 0.05% Brij 35, 2.5 mM L-cysteine, pH 6.0, room temperature. 5. Cathepsin S: • 0.5 nM recombinant human cathepsin S from E. coli (Calbiochem #219343), 20 μM Z-Val-Val-Arg-AMC (Bachem #I-1540) as substrate in 50 mM MES, 2 mM EDTA, 0.05% Brij 35, 2.5 mM L-cysteine, pH 6.0, room temperature.

[2] = molecular target: T2, cathepsin L isolated from human liver (Homo sapiens, UniProt P07711); assay: Cathepsin L enzyme inhibition in vitro (kinetic fluorescence assay); details: Ki(cathepsin L)/Ki(calpain) ratio
T2 construct: cathepsin L—isolated from human liver; purchased Calbiochem 219402; host or cells: human liver (tissue-derived)
T2 sequence (P07711 114-333): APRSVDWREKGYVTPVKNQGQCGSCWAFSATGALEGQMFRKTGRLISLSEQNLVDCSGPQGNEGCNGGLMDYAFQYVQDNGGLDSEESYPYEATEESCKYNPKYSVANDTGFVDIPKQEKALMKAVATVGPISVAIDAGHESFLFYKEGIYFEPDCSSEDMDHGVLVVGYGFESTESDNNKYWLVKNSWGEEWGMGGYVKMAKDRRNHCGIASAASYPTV
Procedure: as §1, §2, §3, §4

[3] = molecular target: T3, calpain-I isolated from human erythrocytes (Homo sapiens, UniProt P07384); assay: Calpain I enzyme inhibition in vitro (kinetic fluorescence assay); details: apparent Ki from IC50 (Cheng-Prussoff); 20 nM calpain-I, 100 μM Suc-Leu-Tyr-AMC, pH 7.3, room temperature
T3 construct: calpain-I—isolated from human erythrocytes; purchased Calbiochem 208713; host or cells: human erythrocytes (tissue-derived)
T3 sequence (P07384 1-714): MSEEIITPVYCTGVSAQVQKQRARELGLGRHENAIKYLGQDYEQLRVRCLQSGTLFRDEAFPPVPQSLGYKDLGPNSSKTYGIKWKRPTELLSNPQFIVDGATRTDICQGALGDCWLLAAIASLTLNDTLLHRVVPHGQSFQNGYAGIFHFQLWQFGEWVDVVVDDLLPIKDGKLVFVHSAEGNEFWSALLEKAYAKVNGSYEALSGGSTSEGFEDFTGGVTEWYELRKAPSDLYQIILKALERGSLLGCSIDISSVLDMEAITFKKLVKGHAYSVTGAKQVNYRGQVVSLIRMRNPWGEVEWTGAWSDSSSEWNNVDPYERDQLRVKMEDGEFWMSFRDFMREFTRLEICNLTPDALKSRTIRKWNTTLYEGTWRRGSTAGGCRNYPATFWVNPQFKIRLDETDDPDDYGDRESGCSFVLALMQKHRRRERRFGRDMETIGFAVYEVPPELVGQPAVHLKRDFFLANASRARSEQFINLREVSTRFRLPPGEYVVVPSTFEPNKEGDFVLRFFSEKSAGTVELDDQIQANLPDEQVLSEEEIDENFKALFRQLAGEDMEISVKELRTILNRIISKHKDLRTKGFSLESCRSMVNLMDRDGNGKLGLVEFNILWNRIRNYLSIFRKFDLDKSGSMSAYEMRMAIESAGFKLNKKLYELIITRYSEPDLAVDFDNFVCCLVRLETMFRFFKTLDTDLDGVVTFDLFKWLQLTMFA
T3 sequence (P04632 1-268 partner): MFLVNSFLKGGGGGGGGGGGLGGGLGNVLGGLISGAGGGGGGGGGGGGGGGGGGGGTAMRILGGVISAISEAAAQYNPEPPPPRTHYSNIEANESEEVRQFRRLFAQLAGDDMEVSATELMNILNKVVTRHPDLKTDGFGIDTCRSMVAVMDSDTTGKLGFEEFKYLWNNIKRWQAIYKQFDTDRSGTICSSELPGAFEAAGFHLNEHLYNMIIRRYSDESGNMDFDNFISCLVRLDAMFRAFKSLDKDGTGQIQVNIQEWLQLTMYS
Procedure: as §1, §2, §3, §4

[4] = molecular target: T4, cathepsin K activated from recombinant human procathepsin K (Homo sapiens, UniProt P43235); assay: Cathepsin K enzyme inhibition in vitro (kinetic fluorescence assay); details: Ki(cathepsin K)/Ki(calpain) ratio
T4 construct: purchased Calbiochem 342001; host or cells: E. coli
T4 sequence (P43235 115-329): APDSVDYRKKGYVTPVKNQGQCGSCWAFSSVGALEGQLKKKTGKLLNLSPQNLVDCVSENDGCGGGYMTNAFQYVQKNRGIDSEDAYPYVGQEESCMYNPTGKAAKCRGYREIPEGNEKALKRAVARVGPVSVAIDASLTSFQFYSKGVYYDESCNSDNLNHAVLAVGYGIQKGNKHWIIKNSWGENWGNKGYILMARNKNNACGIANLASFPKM
Procedure: as §1, §2, §3, §4

[5] = molecular target: T5, cathepsin B isolated from human liver (Homo sapiens, UniProt P07858); assay: Cathepsin B enzyme inhibition in vitro (kinetic fluorescence assay); details: Ki(cathepsin B)/Ki(calpain) ratio
T5 construct: cathepsin B—isolated from human liver; purchased Calbiochem 219362; host or cells: human liver (tissue-derived)
Procedure: as §1, §2, §3, §4

| SMILES | Sel cat. S [1] | Sel cat. L [2] | Ki [3] | Sel cat. K [4] | Sel cat. B [5] |
| --- | --- | --- | --- | --- | --- |
| O=C(NCc1cccs1)C(=O)C(Cc1ccccc1)NC(=O)[C@H]1CCC(=O)N1Cc1ccccc1 (mixture of isomers) [Example 60, (2R)-1-Benzyl-N-(3,4-dioxo-1-phenyl-4-(thiophen-2-ylmethylamino)butan-2-yl)-5-oxopyrrolidine-2-carboxamide] | +++ (Ki(cathepsin S)/Ki(calpain) ratio of >100) | ++ (10<Ki(cathepsin B)/Ki(calpain)≦30) | 50 to 100 nM | +++ (Ki(cathepsin K)/Ki(calpain) ratio of >30) | +++ (Ki(cathepsin B)/Ki(calpain) ratio of >30) |
| O=C(NC1CC1)C(=O)C(Cc1ccccc1)NC(=O)[C@H]1CCC(=O)N1Cc1ccccc1Cl (mixture of isomers) [Example 46, (2R)-1-(2-Chlorobenzyl)-N-(4-(cyclopropylamino)-3,4-dioxo-1-phenylbutan-2-yl)-5-oxopyrrolidine-2-carboxamide] | +++ (Ki(cathepsin S)/Ki(calpain) ratio of >100) | +++ (Ki(cathepsin L)/Ki(calpain) ratio of >30) | 50 to 100 nM | +++ (Ki(cathepsin K)/Ki(calpain) ratio of >30) | ++ (10<Ki(cathepsin B)/Ki(calpain)≦30) |
| N#Cc1cccc(CN2C(=O)CC[C@@H]2C(=O)NC(Cc2ccccc2)C(=O)C(N)=O)c1 (stereo partly drawn) [Example 16, (2R)—N-(4-Amino-3,4-dioxo-1-phenylbutan-2-yl)-1-(3-cyanobenzyl)-5-oxopyrrolidine-2-carboxamide] | + (10<Ki(cathepsin S)/Ki(calpain)≦30) | ++ (10<Ki(cathepsin B)/Ki(calpain)≦30) | 100 to 600 nM | +++ (Ki(cathepsin K)/Ki(calpain) ratio of >30) | ++ (10<Ki(cathepsin B)/Ki(calpain)≦30) |
| NC(=O)C(=O)C(Cc1ccccc1)NC(=O)[C@H]1CCC(=O)N1Cc1cccc(F)c1 (stereo partly drawn) [Example 8, (2R)—N-(4-Amino-3,4-dioxo-1-phenylbutan-2-yl)-1-(3-fluorobenzyl)-5-oxopyrrolidine-2-carboxamide] | +++ (Ki(cathepsin S)/Ki(calpain) ratio of >100) | ++ (10<Ki(cathepsin B)/Ki(calpain)≦30) | 50 to 100 nM | ++ (10<Ki(cathepsin B)/Ki(calpain)≦30) | +++ (Ki(cathepsin B)/Ki(calpain) ratio of >30) |
| NC(=O)C(=O)C(Cc1ccccc1)NC(=O)[C@H]1CCCC(=O)N1Cc1ccccc1 (stereo partly drawn) [Example 14, (2R)—N-(4-Amino-3,4-dioxo-1-phenylbutan-2-yl)-1-benzyl-6-oxopiperidine-2-carboxamide] | ++ (30<Ki(cathepsin B)/Ki(calpain)≦100) | ++ (10<Ki(cathepsin B)/Ki(calpain)≦30) | 50 to 100 nM | – | ++ (10<Ki(cathepsin B)/Ki(calpain)≦30) |
| O=C(NCc1ccncc1)C(=O)C(Cc1ccccc1)NC(=O)[C@H]1CCC(=O)N1Cc1ccccc1 (mixture of isomers) [Example 63, (2R)-1-Benzyl-N-(3,4-dioxo-1-phenyl-4-(pyridin-4-ylmethylamino)butan-2-yl)-5-oxopyrrolidine-2-carboxamide] | +++ (Ki(cathepsin S)/Ki(calpain) ratio of >100) | +++ (Ki(cathepsin L)/Ki(calpain) ratio of >30) | 50 to 100 nM | +++ (Ki(cathepsin K)/Ki(calpain) ratio of >30) | +++ (Ki(cathepsin B)/Ki(calpain) ratio of >30) |
| NC(=O)C(=O)C(Cc1ccccc1)NC(=O)[C@H]1CCC(=O)N1Cc1cccc(Cl)c1 (stereo partly drawn) [Example 3, (2R)—N-(4-Amino-3,4-dioxo-1-phenylbutan-2-yl)-1-(3-chlorobenzyl)-5-oxopyrrolidine-2-carboxamide] | +++ (Ki(cathepsin S)/Ki(calpain) ratio of >100) | ++ (10<Ki(cathepsin B)/Ki(calpain)≦30) | < 50 nM | +++ (Ki(cathepsin K)/Ki(calpain) ratio of >30) | ++ (10<Ki(cathepsin B)/Ki(calpain)≦30) |
| CCCNC(=O)C(=O)C(Cc1ccccc1)NC(=O)[C@H]1CCC(=O)N1Cc1ccccc1 (mixture of isomers) [Example 26, (2R)-1-Benzyl-N-(3,4-dioxo-1-phenyl-4-(propylamino)butan-2-yl)-5-oxopyrrolidine-2-carboxamide] | – | ++ (10<Ki(cathepsin B)/Ki(calpain)≦30) | 100 to 600 nM | +++ (Ki(cathepsin K)/Ki(calpain) ratio of >30) | +++ (Ki(cathepsin B)/Ki(calpain) ratio of >30) |
| NC(=O)C(=O)C(Cc1ccccc1)NC(=O)[C@H]1CCC(=O)N1c1ccccc1 (stereo partly drawn) [Example 15, (2R)—N-(4-Amino-3,4-dioxo-1-phenylbutan-2-yl)-5-oxo-1-phenylpyrrolidine-2-carboxamide] | + (10<Ki(cathepsin S)/Ki(calpain)≦30) | + (5<Ki(cathepsin L)/Ki(calpain)≦10) | – | + (5<Ki(cathepsin K)/Ki(calpain)≦10) | ++ (10<Ki(cathepsin B)/Ki(calpain)≦30) |
| NC(=O)C(=O)C(Cc1ccccc1)NC(=O)[C@H]1CCC(=O)N1Cc1ccccc1OC(F)(F)F (stereo partly drawn) [Example 9, (2R)—N-(4-Amino-3,4-dioxo-1-phenylbutan-2-yl)-5-oxo-1-[2-(trifluoromethoxy)-benzyl]pyrrolidine-2-carboxamide] | +++ (Ki(cathepsin S)/Ki(calpain) ratio of >100) | +++ (Ki(cathepsin L)/Ki(calpain) ratio of >30) | 50 to 100 nM | +++ (Ki(cathepsin K)/Ki(calpain) ratio of >30) | – |
| NC(=O)C(=O)C(Cc1ccccc1)NC(=O)C1CCS(=O)(=O)N1Cc1ccccc1 (stereo not shown) [Example 10, N-(4-Amino-3,4-dioxo-1-phenylbutan-2-yl)-2-benzylisothiazolidine-3-carboxamide 1,1-dioxide] | – | ++ (10<Ki(cathepsin B)/Ki(calpain)≦30) | < 50 nM | – | +++ (Ki(cathepsin B)/Ki(calpain) ratio of >30) |
| NC(=O)C(=O)C(Cc1ccccc1)NC(=O)[C@@H]1CCC(=O)N1Cc1ccccc1 (stereo partly drawn) [Example 2, (2S)—N-(4-Amino-3,4-dioxo-1-phenylbutan-2-yl)-1-benzyl-5-oxopyrrolidine-2-carboxamide] | – | + (5<Ki(cathepsin L)/Ki(calpain)≦10) | 100 to 600 nM | ++ (10<Ki(cathepsin B)/Ki(calpain)≦30) | – |
